Data published in patent publication US20220160901A1, “Stimuli-Responsive Compositions, Imaging Systems, and Methods for Using the Same for Biomedical Applications” (The Regents of the University of California, priority 2019, published 2022).

Assay: T1 values measured using NMR
Design: unit not given here

Question: For Fe(Me-bik)3](BF4)2.25H2O, which “T1 at 23° C.” value (1 mg/mL) is on record?
Answer: 2.9433

Question: What about the “T1 at 40° C.” value (1 mg/mL) of the same substance?
Answer: 4.2093

Question: What about the “T1 at 60° C.” value (1 mg/mL) of the same substance?
Answer: 5.3784

Question: And the “T1 at 23° C.” value (2 mg/mL)?
Answer: 2.8944

Question: And the “T1 at 40° C.” value (2 mg/mL)?
Answer: 3.9614

Question: What about the “T1 at 60° C.” value (2 mg/mL) of the same substance?
Answer: 4.9954

Question: What about the “T1 at 23° C.” value (4 mg/mL) of the same substance?
Answer: 2.7392

Question: And the “T1 at 40° C.” value (4 mg/mL)?
Answer: 3.4784

Question: What about the “T1 at 60° C.” value (4 mg/mL) of the same substance?
Answer: 4.2761

Question: What about the “T1 at 23° C.” value (8 mg/mL) of the same substance?
Answer: 2.7413

Question: And the “T1 at 40° C.” value (8 mg/mL)?
Answer: 3.434

Question: And the “T1 at 60° C.” value (8 mg/mL)?
Answer: 4.172
